In patent US5945450A, “Naphthalene derivative” (Teijin Limited, priority 1994, dated 1999):
Like-named read-outs stand apart in the source and are kept apart here.

Columns and labels:
human IgE antibodies = experiment: In vitro inhibition of the production of human IgE antibodies (lymphocytes + IL-4 + anti CD40Ab + IL-10, ELISA); type: cell-based; conditions: Lymphocyte, read-out: Inhibition of antibody production (%) IgE
Experimental: (§1) According to the method described in J. Immunol., 146:1836-1842, 1991 and J. Immunol., 147:8-13, 1991, the concentrations of IgE and IgG antibodies were measured by the procedures described below.
(§2) Peripheral venous blood was sampled from the healthy person, and submitted to density-gradient centrifugation to isolate lymphocytes. The lymphocytes thus obtained were washed and suspended in a culture medium (RPMI-1640 (provided by Gibco)+10% heat-inactivated FCS (Whittaker)+100 µg/ml streptomycin+100 U/ml penicillin+2mM L-glutamine). The cell suspensions were cultured for 1 week in the presence/absence of the compounds of this invention at the concentrations as described in Tables 3-1 to 3-2 together with human interleukin 4 (IL-4, Genzyme)([…]), anti CD40 antibodies (anti CD40Ab, Biosource, clone B-B20)([…]) and human interleukin 10 (IL-10, Genzyme)([…]). The culture medium was supplied freshly to the cell suspension, and the mixture was further cultured for another week. The supernatant was sampled and the concentrations of IgE and IgG antibodies therein were measured by sandwich ELISA.
(§3) The ELISA was based, for the assay of IgE antibodies, on the use of rabbit anti-human IgE() antibodies (ICN) as the primary antibody and biotin-linked anti-human IgE monoclonal antibodies (G7-26, PharMingen) as the secondary antibody. For the assay of IgG antibodies, anti-human IgG monoclonal antibodies (G18-145, PharMingen) and biotin-linked donkey anti-human IgG antibodies (H+L)(Jackson) were used for the primary and secondary antibodies, respectively. For the assay of both IgE and IgG antibodies, Avidin-Biotin-Horse Radish Peroxidase (ABC kit, Vector Lab) and TMB (3,3',5,5'-tetramethylbenzidine) microwell peroxidase substrate system (Kirkegaard & Perry Laboratories Inc.) were used as the enzyme and the substrate, respectively. The assays were made by the use of conventionally known ELISA.
(§4) The inhibitory effect (%) of a given compound of this invention on the production of the antibody was calculated with respect to the concentration of the same antibody when the compound was not coexistent (refer to Uejima et al., American Academy of Allergy and Immunology, Proceedings of 1995 Annual Meeting, Program No. 818).

mast cells of the rat = experiment: Inhibition of histamine release from rat mast cells; type: cell-based, rat (SD strain); conditions: Mast cell, read-out: Inhibiton of histamine release (%)
Experimental: A 1 ml of anti-DNP-Ascaris (Didets) anti-serum (prepared as described in J. Immunol., 106:1002, 1971) was injected into the peritoneal cavity of 5 SD strain rats of 7 weeks old. Forty eight hours later, the animals were bled to death, and 20 ml of HBSS (Hanks balanced salt solution) was injected into their peritoneal cavity. After about 90 second massaging, the HBSS washing was recovered, and cells released into the peritoneal cavity were collected from the washing. The ascitic cells thus collected were washed once with 0.1% BSA/Tyrode-HEPES, and then resuspended in 0.1% BSA/Tyrode-HEPES to give a suspension with a density of 5×10^6 cells/ml. The cell suspension was incubated at 37° C. for 10 minutes in the presence/absence of a test substance, that is, the compound listed in Table 6.
To the resulting mixture was added a histamine releasing agent (20 μg/ml of DNP-Ascaris (DNP-As) (Didets)+25 μg/ml of phosphatidylserine (PS) or 0.2 μg/ml of calcium ionophore A23187), and the reaction was allowed to proceed at 37° C. for 20 minutes. Then, the cell suspension was centrifuged to obtain supernatant. Histamine released in the supernatant was determined by the fluorescent method (J. Pharmacol. Exp. Ther. 127:182, 1959). Inhibitory effect (%) of a given compound of this invention on histamine release was calculated relative to the histamine release when the compound was not coexistent.

human IgG antibodies = experiment: In vitro inhibition of human IgG antibody production (lymphocytes + IL-4 + anti CD40Ab + IL-10, ELISA); type: cell-based; conditions: Lymphocyte
Experimental: as §1, §2, §3, §4

[1] = releasing agent DNP-As + PS, 10 μM
[2] = releasing agent DNP-As + PS, 100 μM
[3] = releasing agent calcium ionophore A23187, 10 μM
[4] = releasing agent calcium ionophore A23187, 100 μM

| SMILES | inhibition at 1 µM (human IgE antibodies) [%] | inhibition at 3 µM (human IgE antibodies) [%] | inhibition at 10 µM (human IgE antibodies) [%] | inhibition at 10 µM (mast cells of the rat; [1]) [%] | inhibition at 100 µM (mast cells of the rat; [2]) [%] | inhibition at 10 µM (mast cells of the rat; [3]) [%] | inhibition at 100 µM (mast cells of the rat; [4]) [%] | inhibition at 1 µM (human IgG antibodies) [%] | inhibition at 3 µM (human IgG antibodies) [%] | inhibition at 10 µM (human IgG antibodies) [%] |
| --- | --- | --- | --- | --- | --- | --- | --- | --- | --- | --- |
| O=C(Cc1ccc(Oc2ccc3ccccc3c2)cc1)Nc1ccccc1C(=O)O [Compound No. 1126, 2-(4-(2-naphtyloxy)phenylacetamide)benzoic acid] | 63.9 | 93.5 | 97.9 | 25.4 | 90.2 | 54.2 | 79.8 | -5 | 35.4 | 84 |
| O=C(Nc1ccccc1C(=O)O)c1ccc(Oc2ccc3ccccc3c2)cc1 [Compound No. 1104, 2-(4-(2-naphtyloxy)benzamide)benzoic Acid] | 35.9 | 85.6 | 98.2 | 42.7 | 84.2 | 75.4 | 78 | -4.7 | -6.2 | 20.5 |
